We go through 21 molecules from US10745382B2 (BRISTOL-MYERS SQUIBB COMPANY, priority 2015, dated 2020).

The pIC50 is the IC50 on a negative log10 scale, so that one unit is a factor of ten.

pIC50: −log10 of the molar value.

One experiment deals with T1, PD-1/PD-L1 (Homo sapiens, UniProt Q9NZQ7).
T1 construct: made in house; host or cells: HEK293T
T1 sequence (Q9NZQ7 with tags, fused parts or gaps): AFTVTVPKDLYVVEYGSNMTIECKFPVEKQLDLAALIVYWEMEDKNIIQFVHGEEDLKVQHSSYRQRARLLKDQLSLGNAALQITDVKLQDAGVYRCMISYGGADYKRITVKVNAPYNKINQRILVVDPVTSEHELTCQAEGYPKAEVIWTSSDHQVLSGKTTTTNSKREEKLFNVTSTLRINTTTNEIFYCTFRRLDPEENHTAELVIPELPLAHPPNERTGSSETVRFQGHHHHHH
The experiment is described as follows: PD-1/PD-L1 Homogenous Time-Resolved Fluorescence (HTRF) binding assay. To be noted: PD-L1-His 10 nM, PD-1-Ig 20 nM; numeric IC50; read-out: Range or IC50. In short, it runs like this:
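Binding measured in dPBS with 0.1% BSA and 0.05% Tween-20, detected by HTRF with europium cryptate anti-Ig (1 nM final) and APC anti-His (20 nM final) added over the binding reaction. Counter-assays used human PD-1-Ig/PD-L2-His (20 and 5 nM) and CD80-His/PD-L1-Ig (100 and 10 nM).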
Consider `Cc1c(COc2cc(OCc3cncc(C#N)c3)c(CN3CCCC[C@H]3C(=O)O)cc2Cl)cccc1-c1cccc(OCCCN(C)C)c1C` [Example 2253, (2S)-1-(5-chloro-2-((5-cyanopyridin-3-yl)methoxy)-4-((3′-(3-(dimethylamino)propoxy)-2,2′-dimethylbiphenyl-3-yl)methoxy)benzyl)piperidine-2-carboxylic Acid], for which the pIC50 is 8.28.

The experiment is the same for the next values; noted with them: PD-L1-His 10 nM, PD-1-Ig 20 nM; value given as range class; read-out: Range or IC50.
For the molecule `Cc1c(COc2cc(OCc3cncc(C#N)c3)c(CN3CCCC[C@H]3C(=O)O)cc2Cl)cccc1-c1cccc(OCCCNCC(O)CO)c1C` (stereo partly drawn) [Example 2235, (2S)-1-(5-chloro-2-((5-cyanopyridin-3-yl)methoxy)-4-((3′-(3-(2,3-dihydroxypropylamino)propoxy)-2,2′-dimethylbiphenyl-3-yl)methoxy)benzyl)piperidine-2-carboxylic Acid], the pIC50 is 8.00 to 9.68.
As for `Cc1c(COc2cc(OCc3cncc(C#N)c3)c(CN3CCCC[C@H]3C(=O)O)cc2Cl)cccc1-c1cccc(OCCCN(CCO)Cc2ccccc2)c1C` [Example 2236, (2S)-1-(4-((3′-(3-(benzyl(2-hydroxyethyl)amino)propoxy)-2,2′-dimethylbiphenyl-3-yl)methoxy)-5-chloro-2-((5-cyanopyridin-3-yl)methoxy)benzyl)piperidine-2-carboxylic Acid], the pIC50 was 8.00 to 9.68.
On the same count and under the same terms, the same measure for `Cc1c(COc2cc(OCc3cncc(C#N)c3)c(CN3CCCC[C@H]3C(=O)O)cc2Cl)cccc1-c1cccc(OCCCN[C@@H](CO)C(C)C)c1C` [Example 2237, (2S)-1-(5-chloro-2-((5-cyanopyridin-3-yl)methoxy)-4-((3′-(3-((R)-1-hydroxy-3-methylbutan-2-ylamino)propoxy)-2,2′-dimethylbiphenyl-3-yl)methoxy)benzyl)piperidine-2-carboxylic Acid]: 8.00 to 9.68; for `Cc1c(COc2cc(OCc3cncc(C#N)c3)c(CN3CCCC[C@H]3C(=O)O)cc2Cl)cccc1-c1cccc(OCCCN[C@H](CO)C(C)C)c1C` [Example 2238, (2S)-1-(5-chloro-2-((5-cyanopyridin-3-yl)methoxy)-4-((3′-(3-((S)-1-hydroxy-3-methylbutan-2-ylamino)propoxy)-2,2′-dimethylbiphenyl-3-yl)methoxy)benzyl)piperidine-2-carboxylic Acid]: 8.00 to 9.68; for `Cc1c(COc2cc(OCc3cncc(C#N)c3)c(CN[C@@](C)(CO)C(=O)O)cc2Cl)cccc1-c1cccc(OCCCN2CCC[C@@H](C(=O)O)C2)c1C` [Example 2239, (3R)-1-(3-(3′-((4-(((S)-2-carboxy-1-hydroxypropan-2-ylamino)methyl)-2-chloro-5-((5-cyanopyridin-3-yl)methoxy)phenoxy)methyl)-2,2′-dimethylbiphenyl-3-yloxy)propyl)piperidine-3-carboxylic Acid]: 8.00 to 9.68.
Same read-out and setting: then `Cc1c(COc2cc(OCc3cncc(C#N)c3)c(CN3CCCC[C@H]3C(=O)O)cc2Cl)cccc1-c1cccc(OCCCN2C[C@@H](O)C[C@H]2C(=O)O)c1C` [Example 2240, (2S)-1-(4-((3′-(3-((2S,4S)-2-carboxy-4-hydroxypyrrolidin-1-yl)propoxy)-2,2′-dimethylbiphenyl-3-yl)methoxy)-5-chloro-2-((5-cyanopyridin-3-yl)methoxy)benzyl)piperidine-2-carboxylic Acid], with 8.00 to 9.68; and `Cc1c(COc2cc(OCc3cncc(C#N)c3)c(CN3CCCC[C@H]3C(=O)O)cc2Cl)cccc1-c1cccc(OCCCN2C[C@H](O)C[C@H]2C(=O)O)c1C` [Example 2241, (2S)-1-(4-((3′-(3-((2S,4R)-2-carboxy-4-hydroxypyrrolidin-1-yl)propoxy)-2,2′-dimethylbiphenyl-3-yl)methoxy)-5-chloro-2-((5-cyanopyridin-3-yl)methoxy)benzyl)piperidine-2-carboxylic Acid], with 8.00 to 9.68; and `Cc1c(COc2cc(OCc3cncc(C#N)c3)c(CN3CCCC[C@H]3C(=O)O)cc2Cl)cccc1-c1cccc(OCCCNC[C@H](O)C(=O)O)c1C` [Example 2242, (2S)-1-(4-((3′-(3-((S)-2-carboxy-2-hydroxyethylamino)propoxy)-2,2′-dimethylbiphenyl-3-yl)methoxy)-5-chloro-2-((5-cyanopyridin-3-yl)methoxy)benzyl)piperidine-2-carboxylic Acid], with 8.00 to 9.68.
The same measure, in the same setting: then `COC(=O)[C@@H]1CCCCN1CCCOc1cccc(-c2cccc(COc3cc(OCc4cncc(C#N)c4)c(CN4CCCC[C@H]4C(=O)O)cc3Cl)c2C)c1C` [Example 2243, (2S)-1-(5-chloro-2-((5-cyanopyridin-3-yl)methoxy)-4-((3′-(3-((S)-2-(methoxycarbonyl)piperidin-1-yl)propoxy)-2,2′-dimethylbiphenyl-3-yl)methoxy)benzyl)piperidine-2-carboxylic Acid], with 8.00 to 9.68; and `Cc1c(COc2cc(OCc3cncc(C#N)c3)c(CN3CCCC[C@H]3C(=O)O)cc2Cl)cccc1-c1cccc(OCCCN2CCCCC2C(N)=O)c1C` (stereo partly drawn) [Example 2244, (2S)-1-(4-((3′-(3-(2-carbamoylpiperidin-1-yl)propoxy)-2,2′-dimethylbiphenyl-3-yl)methoxy)-5-chloro-2-((5-cyanopyridin-3-yl)methoxy)benzyl)piperidine-2-carboxylic Acid], with 8.00 to 9.68.
With `Cc1c(COc2cc(OCc3cncc(C#N)c3)c(CN3CCCC[C@H]3C(=O)O)cc2Cl)cccc1-c1cccc(OCCCN2CCCCC2C)c1C` (stereo partly drawn) [Example 2245, (2S)-1-(5-chloro-2-((5-cyanopyridin-3-yl)methoxy)-4-((2,2′-dimethyl-3′-(3-(2-methylpiperidin-1-yl)propoxy)biphenyl-3-yl)methoxy)benzyl)piperidine-2-carboxylic Acid], the pIC50 was 8.00 to 9.68.
The same measure, in the same setting: the same measure for `Cc1c(COc2cc(OCc3cncc(C#N)c3)c(CN3CCCC[C@H]3C(=O)O)cc2Cl)cccc1-c1cccc(OCCCN2CCC(N(C)C(=O)OC(C)(C)C)CC2)c1C` [Example 2246, (2S)-1-(4-((3′-(3-(4-(tert-butoxycarbonyl(methyl)amino)piperidin-1-yl)propoxy)-2,2′-dimethylbiphenyl-3-yl)methoxy)-5-chloro-2-((5-cyanopyridin-3-yl)methoxy)benzyl)piperidine-2-carboxylic Acid]: 8.00 to 9.68; for `Cc1c(COc2cc(OCc3cncc(C#N)c3)c(CN3CCCC[C@H]3C(=O)O)cc2Cl)cccc1-c1cccc(OCCCN2CC[C@H](F)C2)c1C` [Example 2247, (2S)-1-(5-chloro-2-((5-cyanopyridin-3-yl)methoxy)-4-((3′-(3-((S)-3-fluoropyrrolidin-1-yl)propoxy)-2,2′-dimethylbiphenyl-3-yl)methoxy)benzyl)piperidine-2-carboxylic Acid]: 8.00 to 9.68; for `Cc1c(COc2cc(OCc3cncc(C#N)c3)c(CN3CCCC[C@H]3C(=O)O)cc2Cl)cccc1-c1cccc(OCCCN2CCC(N3CCOCC3)CC2)c1C` [Example 2248, (2S)-1-(5-chloro-2-((5-cyanopyridin-3-yl)methoxy)-4-((2,2′-dimethyl-3′-(3-(4-morpholinopiperidin-1-yl)propoxy)biphenyl-3-yl)methoxy)benzyl)piperidine-2-carboxylic Acid]: 8.00 to 9.68.
Same read-out and setting: the same measure for `Cc1c(COc2cc(OCc3cncc(C#N)c3)c(CN3CCCC[C@H]3C(=O)O)cc2Cl)cccc1-c1cccc(OCCCN2CC3CC2CO3)c1C` (stereo partly drawn) [Example 2249, (2S)-1-(4-((3′-(3-(2-oxa-5-azabicyclo[2.2.1]heptan-5-yl)propoxy)-2,2′-dimethylbiphenyl-3-yl)methoxy)-5-chloro-2-((5-cyanopyridin-3-yl)methoxy)benzyl)piperidine-2-carboxylic Acid]: 8.00 to 9.68; for `CC(=O)N[C@@H]1CCN(CCCOc2cccc(-c3cccc(COc4cc(OCc5cncc(C#N)c5)c(CN5CCCC[C@H]5C(=O)O)cc4Cl)c3C)c2C)C1` [Example 2250, (2S)-1-(4-((3′-(3-((R)-3-acetamidopyrrolidin-1-yl)propoxy)-2,2′-dimethylbiphenyl-3-yl)methoxy)-5-chloro-2-((5-cyanopyridin-3-yl)methoxy)benzyl)piperidine-2-carboxylic Acid]: 8.00 to 9.68; for `Cc1c(COc2cc(OCc3cncc(C#N)c3)c(CN3CCCC[C@H]3C(=O)O)cc2Cl)cccc1-c1cccc(OCCCN2CCCCC2CC(=O)O)c1C` (stereo partly drawn) [Example 2251, (2S)-1-(4-((3′-(3-(2-(carboxymethyl)piperidin-1-yl)propoxy)-2,2′-dimethylbiphenyl-3-yl)methoxy)-5-chloro-2-((5-cyanopyridin-3-yl)methoxy)benzyl)piperidine-2-carboxylic Acid]: 8.00 to 9.68.
With `CO[C@@H]1CCN(CCCOc2cccc(-c3cccc(COc4cc(OCc5cncc(C#N)c5)c(CN5CCCC[C@H]5C(=O)O)cc4Cl)c3C)c2C)C1` [Example 2252, (2S)-1-(5-chloro-2-((5-cyanopyridin-3-yl)methoxy)-4-((3′-(3-((R)-3-methoxypyrrolidin-1-yl)propoxy)-2,2′-dimethylbiphenyl-3-yl)methoxy)benzyl)piperidine-2-carboxylic Acid], the pIC50 is 8.00 to 9.68.
As for `Cc1c(COc2cc(OCc3cncc(C#N)c3)c(CN(C)CC(O)CO)cc2Cl)cccc1-c1cccc(OCCCN(C)CC(O)CO)c1C` (stereo not drawn) [Example 2254, 5-((4-chloro-2-(((2,3-dihydroxypropyl)(methyl)amino)methyl)-5-((3-(3-((2,3-dihydroxypropyl) (methyl)amino)propoxy)-2,2′-dimethylbiphenyl-3-yl)methoxy)phenoxy)methyl)nicotinonitrile], the pIC50 is 8.00 to 9.68.
The same measure, in the same setting: the same measure for `Cc1c(COc2cc(OCc3cncc(C#N)c3)c(CN3CCCC(CO)C3)cc2Cl)cccc1-c1cccc(OCCCN2CCCC(CO)C2)c1C` (stereo not drawn) [Example 2255, 5-((4-chloro-2-((3-(hydroxymethyl)piperidin-1-yl)methyl)-5-((3′-(3-(3-(hydroxymethyl)piperidin-1-yl)propoxy)-2,2′-dimethylbiphenyl-3-yl)methoxy)phenoxy)methyl)nicotinonitrile]: 8.00 to 9.68.
